The source of these data is US10238670B2, “9-aminomethyl minocycline compounds and methods of use thereof in urinary tract infection (UTI) treatment” (Paratek Pharmaceuticals, Inc., priority 2016, dated 2019).

Converted amounts (≈) assume the structure as drawn.

Experiment [1] concerns P. mirabilis. The experiment in a line: In vitro MIC, 2010 surveillance isolates. It is filed as cell-based. Conditions: N=384.
The test system of experiment [2] is E. coli (ATCC 25922). The experiment in a line: Broth microdilution MIC against planktonic E. coli. Format: cell-based. The following applies: Escherichia coli, ATCC25922, extrapolated from OD650 plot after 24 hours, read-out: minimum inhibitory concentration (MIC). As to the method: Antimicrobial activity of Compound 1 against E. coli (ATCC 25922) was determined using a standard broth microdilution method (CLSI in Methods for Dilution Antimicrobial Susceptibility Tests for Bacteria That Grow Aerobically, Approved Standard M7-A8, Clinical and Laboratory Standards Institute, Wayne, Pa. (USA), 2011, incorporated herein by reference) with slight modifications.

For experiment [3], the system named is Ind+ Proteus spp. The experiment in a line: In vitro MIC, 2010 surveillance isolates. Format: cell-based. Conditions: N=258.
The subject of experiment [4] is E. coli (ATCC 25922) biofilm. The experiment in a line: MBEC assay, activity against established 24 hour biofilm. Format: cell-based, Escherichia coli. The following applies: 24 hours challenge. The method, then: The MBEC™ assay (formerly the Calgary biofilm device; Innovotech Inc., Canada) is a well-established high throughput assay for assessment of anti-biofilm activity of test agents in a 96-well format. Within this assay, the biofilm is formed on the plastic pegs of the plate lid. After inoculated media is introduced to the wells of the 96-well plate, the plate is placed in a shaking incubator to generate the necessary shear force for biofilm growth on the pegs. Following a suitable incubation time, the individual biofilms can be treated with varying concentrations of test agents (challenge plate). After the desired treatment time, the remaining biofilm-associated bacteria are retrieved from the pegs through sonication (recovery plate). Serial dilution and/or plating of the recovered bacterial suspension allow for the quantification of test agents' efficacy against pre-formed biofilms. Additionally, readout of the challenge plate from the biofilm treatment can be used to determine MIC values of test agents. The absence of growth in the recovery plate indicates complete biofilm eradication and the lowest concentration of a test agent that achieves this is designated as the minimum biofilm eradication concentration (MBEC). The MBEC™ assay is also amenable to assess potential synergistic effects of combination treatments, as well as efficacy of test agents in inhibiting or inducing biofilm formation. The MBEC™ plates were inoculated with 10^7 CFU/mL of stationary phase E. coli (ATCC 25922) and incubated for 24 hours to allow formation of a robust biofilm. The individual biofilms formed on the pegs were challenged with varying concentrations of antibiotics for 24 hours, followed by recovery of the surviving bacteria. Bacterial enumeration was performed using a Most Probable Number (MPN) assay (Sutton, Journal of Validation Technology 16 (3): 35-38, 2010, incorporated herein by reference) in a 96-well format.

In the case of `CN(C)c1cc(CNCC(C)(C)C)c(O)c2c1C[C@H]1C[C@H]3[C@H](N(C)C)C(O)=C(C(N)=O)C(=O)[C@@]3(O)C(O)=C1C2=O` [Compound 1, 9-[(2,2-dimethyl-propylamino)-methyl]-minocycline], the “Cumulative % Inhibition at MIC” value in experiment [1] (MIC 1 μg/ml) is 0.3%; in experiment [1] (MIC 2 μg/ml), 1.3%; in experiment [1] (MIC 4 μg/ml), 5.7%; in experiment [1] (MIC 8 μg/ml), 22.9%; in experiment [1] (MIC 16 μg/ml), 56.8%; in experiment [1] (MIC ≤0.5 μg/ml), 0%. In addition, the “Cumulative % Inhibition at MIC” value is recorded as 100% in experiment [1] (MIC ≥32 μg/ml); 0.8% in experiment [3] (MIC 1 μg/ml); 3.1% in experiment [3] (MIC 2 μg/ml); 26.0% in experiment [3] (MIC 4 μg/ml); 58.1% in experiment [3] (MIC 8 μg/ml); 73.3% in experiment [3] (MIC 16 μg/ml). Also, the “Cumulative % Inhibition at MIC” value in experiment [3] (MIC ≤0.5 μg/ml) is 0%; in experiment [3] (MIC ≥32 μg/ml) it was 100%. Also, the MIC in experiment [2] was 1.13 µg/mL (≈ 2.03 µM). Further, the “reduction of total biofilm-associated bacteria” value in experiment [4] (at around MIC) is 1-2 log units. Also, the reduction in bioburden in experiment [4] (at higher concentrations) was 4-5 log units.
